Results reported in the supplement of paper PMC6045584.
± gives the standard deviation of the averaged measurements.

Columns and labels:
AFATINIB [1] = compound: T1, CN(C)C/C=C/C(=O)Nc1cc2c(Nc3ccc(F)c(Cl)c3)ncnc2cc1O[C@H]1CCOC1 [AFATINIB]; assay: area under dose-response curve of surviving fraction (unscaled, Aref=0) (surviving fraction x log10(nM)); higher = more resistant; settings: exposure time: 5 days; dose range 0.5-1000 nM
Summary of the method: (§1)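 Three screens per tumour cell line were run in 384-well plates at eight inhibitor concentrations from 0.5 to 1000 nM over five days. Surviving fractions, from CellTiter-Glo luminescence normalised to DMSO-only wells, were fitted with 3-parameter logistic curves in the drc R package. The reported area under the curve is the unscaled activity area. It spans log10 dose, and Aref is 0.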

SAPACITABINE [2] = compound: T2, CCCCCCCCCCCCCCCC(=O)Nc1ccn([C@@H]2O[C@H](CO)[C@@H](O)[C@@H]2C#N)c(=O)n1 [SAPACITABINE]; assay: as above; settings: exposure time: 5 days; dose range 0.5-1000 nM
Summary of the method: as §1

[3] = compound: Cn1cc(C2=Nc3cc(NC(=O)C(N)C4CCCCC4)cc4c3C2=CNNC4=O)cn1; assay: as above; settings: exposure time: 5 days; dose range 0.5-1000 nM
Summary of the method: as §1

CANERTINIB [4] = compound: T3, C=CC(=O)Nc1cc2c(Nc3ccc(F)c(Cl)c3)ncnc2cc1OCCCN1CCOCC1 [CANERTINIB]; assay: as above; settings: exposure time: 5 days; dose range 0.5-1000 nM
Summary of the method: as §1

MDV3100 [5] = compound: T4, CNC(=O)c1ccc(N2C(=S)N(c3ccc(C#N)c(C(F)(F)F)c3)C(=O)C2(C)C)cc1F [MDV3100]; assay: as above; settings: exposure time: 5 days; dose range 0.5-1000 nM
Summary of the method: as §1

BI-2536 [6] = compound: T5, CC[C@@H]1C(=O)N(C)c2cnc(Nc3ccc(C(=O)NC4CCN(C)CC4)cc3OC)nc2N1C1CCCC1 [BI-2536]; assay: as above; settings: exposure time: 5 days; dose range 0.5-1000 nM
Summary of the method: as §1

TIOGUANINE [7] = compound: T6, Nc1nc2[nH]cnc2c(=S)[nH]1 [TIOGUANINE]; assay: as above; settings: exposure time: 5 days; dose range 0.5-1000 nM
Summary of the method: as §1

SNX-5422 [8] = compound: T7, CC1(C)CC(=O)c2c(C(F)(F)F)nn(-c3ccc(C(N)=O)c(N[C@H]4CC[C@H](OC(=O)CN)CC4)c3)c2C1 [SNX-5422]; assay: as above; settings: exposure time: 5 days; dose range 0.5-1000 nM
Summary of the method: as §1

AFATINIB [9] = compound: T1, AFATINIB; assay: surviving fraction relative to DMSO-only wells; higher = less growth inhibition; settings: exposure time: 5 days
Summary of the method: (§2)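 Viability was scored with CellTiter-Glo luminescence and normalised to the median of DMSO-only wells as surviving fraction. Beforehand, log-phase tumour cell lines were seeded at 250–500 cells per well in 384-well plates, allowed 24 hours, and exposed continuously for five days to inhibitors at 0.5, 1, 5, 10, 50, 100, 500 and 1000 nM. Only lines whose three screens gave replicate Pearson r >0.7 and median Z' >0.3 were kept.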

SAPACITABINE [10] = compound: T2, SAPACITABINE; assay: as above; settings: exposure time: 5 days
Summary of the method: as §2

[11] = compound: Cn1cc(C2=Nc3cc(NC(=O)C(N)C4CCCCC4)cc4c3C2=CNNC4=O)cn1; assay: as above; settings: exposure time: 5 days
Summary of the method: as §2

CANERTINIB [12] = compound: T3, CANERTINIB; assay: as above; settings: exposure time: 5 days
Summary of the method: as §2

MDV3100 [13] = compound: T4, MDV3100; assay: as above; settings: exposure time: 5 days
Summary of the method: as §2

BI-2536 [14] = compound: T5, BI-2536; assay: as above; settings: exposure time: 5 days
Summary of the method: as §2

TIOGUANINE [15] = compound: T6, TIOGUANINE; assay: as above; settings: exposure time: 5 days
Summary of the method: as §2

SNX-5422 [16] = compound: T7, SNX-5422; assay: as above; settings: exposure time: 5 days
Summary of the method: as §2

Question: Which results are given for CHLA90 AUTONOMIC GANGLIA?
Answer: area under dose-response curve (AFATINIB [1]): 2.76; area under dose-response curve (SAPACITABINE [2]): 2.09; area under dose-response curve [3]: 2.37; area under dose-response curve (CANERTINIB [4]): 2.51; area under dose-response curve (MDV3100 [5]): 2.67; area under dose-response curve (BI-2536 [6]): 1.2; area under dose-response curve (TIOGUANINE [7]): 3.12; area under dose-response curve (SNX-5422 [8]): 2.04; surviving fraction (AFATINIB [9]; 0.5 nM): 0.991 ± 0.042; surviving fraction (AFATINIB [9]; 1 nM): 0.981 ± 0.056; surviving fraction (AFATINIB [9]; 5 nM): 0.839 ± 0.063; surviving fraction (AFATINIB [9]; 10 nM): 0.849 ± 0.077; surviving fraction (AFATINIB [9]; 50 nM): 0.819 ± 0.017; surviving fraction (AFATINIB [9]; 100 nM): 0.796 ± 0.052; surviving fraction (AFATINIB [9]; 500 nM): 0.775 ± 0.051; surviving fraction (AFATINIB [9]; 1000 nM): 0.593 ± 0.036; surviving fraction (SAPACITABINE [10]; 0.5 nM): 0.843 ± 0.099; surviving fraction (SAPACITABINE [10]; 1 nM): 0.692 ± 0.038; surviving fraction (SAPACITABINE [10]; 5 nM): 0.797 ± 0.052; surviving fraction (SAPACITABINE [10]; 10 nM): 0.235 ± 0.019; surviving fraction (SAPACITABINE [10]; 50 nM): 0.889 ± 0.092; surviving fraction (SAPACITABINE [10]; 100 nM): 0.755 ± 0.057; surviving fraction (SAPACITABINE [10]; 500 nM): 0.641 ± 0.042; surviving fraction (SAPACITABINE [10]; 1000 nM): 0.212 ± 0.038; surviving fraction ([11]; 0.5 nM): 1.01 ± 0.025; surviving fraction ([11]; 1 nM): 1.07 ± 0.07; surviving fraction ([11]; 5 nM): 0.956 ± 0.057; surviving fraction ([11]; 10 nM): 0.992 ± 0.023; surviving fraction ([11]; 50 nM): 0.772 ± 0.03; surviving fraction ([11]; 100 nM): 0.557 ± 0.04; surviving fraction ([11]; 500 nM): 0.101 ± 0.0068; surviving fraction ([11]; 1000 nM): 0.0843 ± 0.011; surviving fraction (CANERTINIB [12]; 0.5 nM): 0.869 ± 0.021; surviving fraction (CANERTINIB [12]; 1 nM): 0.876 ± 0.083; surviving fraction (CANERTINIB [12]; 5 nM): 0.744 ± 0.072; surviving fraction (CANERTINIB [12]; 10 nM): 0.704 ± 0.03; surviving fraction (CANERTINIB [12]; 50 nM): 0.812 ± 0.08; surviving fraction (CANERTINIB [12]; 100 nM): 0.761 ± 0.057; surviving fraction (CANERTINIB [12]; 500 nM): 0.684 ± 0.045; surviving fraction (CANERTINIB [12]; 1000 nM): 0.643 ± 0.062; surviving fraction (MDV3100 [13]; 0.5 nM): 0.946 ± 0.11; surviving fraction (MDV3100 [13]; 1 nM): 0.812 ± 0.07; surviving fraction (MDV3100 [13]; 5 nM): 0.878 ± 0.077; surviving fraction (MDV3100 [13]; 10 nM): 0.362 ± 0.028; surviving fraction (MDV3100 [13]; 50 nM): 1 ± 0.078; surviving fraction (MDV3100 [13]; 100 nM): 0.94 ± 0.12; surviving fraction (MDV3100 [13]; 500 nM): 1 ± 0.076; surviving fraction (MDV3100 [13]; 1000 nM): 0.625 ± 0.14; surviving fraction (BI-2536 [14]; 0.5 nM): 1.07 ± 0.045; surviving fraction (BI-2536 [14]; 1 nM): 0.978 ± 0.062; surviving fraction (BI-2536 [14]; 5 nM): 0.408 ± 0.032; surviving fraction (BI-2536 [14]; 10 nM): 0.203 ± 0.01; surviving fraction (BI-2536 [14]; 50 nM): 0.167 ± 0.027; surviving fraction (BI-2536 [14]; 100 nM): 0.135 ± 0.015; surviving fraction (BI-2536 [14]; 500 nM): 0.132 ± 0.0078; surviving fraction (BI-2536 [14]; 1000 nM): 0.0863 ± 0.0025; surviving fraction (TIOGUANINE [15]; 0.5 nM): 0.95 ± 0.029; surviving fraction (TIOGUANINE [15]; 1 nM): 0.99 ± 0.04; surviving fraction (TIOGUANINE [15]; 5 nM): 1 ± 0.038; surviving fraction (TIOGUANINE [15]; 10 nM): 0.948 ± 0.034; surviving fraction (TIOGUANINE [15]; 50 nM): 0.96 ± 0.043; surviving fraction (TIOGUANINE [15]; 100 nM): 0.913 ± 0.08; surviving fraction (TIOGUANINE [15]; 500 nM): 0.88 ± 0.057; surviving fraction (TIOGUANINE [15]; 1000 nM): 0.912 ± 0.048; surviving fraction (SNX-5422 [16]; 0.5 nM): 0.995 ± 0.028; surviving fraction (SNX-5422 [16]; 1 nM): 1.07 ± 0.075; surviving fraction (SNX-5422 [16]; 5 nM): 1.04 ± 0.041; surviving fraction (SNX-5422 [16]; 10 nM): 1.026 ± 0.0046; surviving fraction (SNX-5422 [16]; 50 nM): 0.251 ± 0.028; surviving fraction (SNX-5422 [16]; 100 nM): 0.227 ± 0.029; surviving fraction (SNX-5422 [16]; 500 nM): 0.129 ± 0.0096; surviving fraction (SNX-5422 [16]; 1000 nM): 0.141 ± 0.0081
